Test results: patent US8975417B2, “Pyrazolopyrrolidine derivatives and their use in the treatment of disease” (Novartis AG, priority 2013, dated 2015)
pIC50: −log10 of the molar value.

How the values were obtained:
[1] = molecular target: His-CREBBP (1081-1197) bromodomain (Homo sapiens (Human), UniProt Q92793); assay: AlphaScreen in-vitro binding assay for CREBBP; conditions: biochemical
Outline: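 Ni-chelate acceptor and streptavidin donor beads (45 µg/mL each, in 50 mM HEPES pH 7.5, 150 mM NaCl, 0.02% BSA) were then added for 60 min at room temperature. IC50 came from 8-point non-linear regression.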

[2] = molecular target: His-Brd4(44-477) (Homo sapiens (Human), UniProt O60885); assay: TR-FRET in-vitro binding assay for BRD4; conditions: biochemical
Outline: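 His-tagged BRD2(60-472), BRD3(20-477) or BRD4(44-477), 45 nM in dispensing solution, with 60 nM tetra-acetylated histone H4 peptide (AcK5/8/12/16) in dispensing solution; HEPES pH 7.5, 50 mM NaCl, 0.1% BSA, 30 °C, 35 min. Eu-anti-His6 antibody plus streptavidin-APC added for TR-FRET read-out; 8-point compound dilutions.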

[3] = molecular target: nuclear BRD4-NUT foci in HCC2494 NUT midline carcinoma cells (Homo sapiens (Human), UniProt O60885+Q86Y26); assay: Nut-foci formation assay; assay type: cell-based; conditions: 24 hours, read-out: HCS Brd4-NUT IC50
Outline: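 HCC2494 cells carrying BRD4-NUT, treated 24 h at 37 °C with 3-fold dilutions from 10 μM. Fixed and stained with anti-NUT antibody, imaged automatically to count nuclear foci per nucleus.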

Sequence of His-CREBBP (1081-1197) bromodomain (Q92793 1081-1197): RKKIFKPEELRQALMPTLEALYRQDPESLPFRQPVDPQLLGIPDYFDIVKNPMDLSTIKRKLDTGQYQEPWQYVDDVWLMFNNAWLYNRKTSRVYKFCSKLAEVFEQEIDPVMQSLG

| SMILES | pIC50 [1] | pIC50 [2] | pIC50 [3] |
| --- | --- | --- | --- |
| CCc1nn(C)c2c1C(c1ccc(Cl)cc1)N(c1cc(OC)c3nnc(C)n3c1)C2=O (stereo not drawn) [Example 105, 4-(4-chlorophenol)-3-ethyl-5-(8-methoxy-3-methyl-[1,2,4]triazolo[4,3-a]pyridin-6-yl)-1-methyl-4,5-dihydropyrrolo[3,4-c]pyrazol-6(1H)-one] | < 4.43 | 7.17 | 7.01 |
| Cc1nn(C[C@H](O)C(F)(F)F)c2c1[C@@H](c1ccc(Cl)cc1)N(c1cc(C)c3nnc(C)n3c1)C2=O [Example 167, (R)-4-(4-chlorophenyl)-5-(3,8-dimethyl-[1,2,4]triazolo[4,3-a]pyridin-6-yl)-3-methyl-1-((S)-3,3,3-trifluoro-2-hydroxypropyl)-4,5-dihydropyrrolo[3,4-c]pyrazol-6(1H)-one] | 4.92 | 7.40 | 7.48 |
| Cc1cc(N2C(=O)c3c(cnn3C3CC3)C2c2ccc(Cl)cc2)cn(C)c1=O (stereo not drawn) [Example 34, 4-(4-chlorophenyl)-1-cyclopropyl-5-(1,5-dimethyl-6-oxo-1,6-dihydropyridin-3-yl)-4,5-dihydropyrrolo[3,4-c]pyrazol-6(1H)-one] | 5.28 | 6.96 | 6.69 |
| Cc1nn(C2CC2)c2c1C(c1ccc(OC(F)(F)F)cc1)N(c1cc(C)c(=O)n(C)c1)C2=O (stereo not drawn) [Example 95, 1-cyclopropyl-5-(1,5-dimethyl-6-oxo-1,6-dihydropyridin-3-yl)-3-methyl-4-(4-(trifluoromethoxy)phenyl)-4,5-dihydropyrrolo[3,4-c]pyrazol-6(1H)-one] | 5.11 | 7.19 | 6.72 |
| Cc1nn(C2CC2)c2c1[C@@H](c1ccc(Cl)cc1)N(c1cc(C)c3nnc(C)n3n1)C2=O [Example 122, (R)-4-(4-chlorophenyl)-1-cyclopropyl-5-(3,8-dimethyl-[1,2,4]triazolo[4,3-b]-pyridazin-6-yl)-3-methyl-4,5-dihydropyrrolo[3,4-c]pyrazol-6(1H)-one] | < 4.43 | > 7.96 | 8.14 |
| Cc1nn(C2CC2)c2c1C(c1cccc(C(F)(F)F)c1)N(c1cc(C)c(=O)n(C)c1)C2=O (stereo not drawn) [Example 96, 1-cyclopropyl-5-(1,5-dimethyl-6-oxo-1,6-dihydropyridin-3-yl)-3-methyl-4-(3-(trifluoromethyl)phenyl)-4,5-dihydropyrrolo[3,4-c]pyrazol-6(1H)-one] | 4.74 | 6.11 | 5.70 |
| CCOC(=O)N1CC(n2nc(C)c3c2C(=O)N(c2cc(C)c4nnc(C)n4c2)C3c2ccc(Cl)cc2)C1 (stereo not drawn) [Example 156, Ethyl 3-(4-(4-chlorophenyl)-5-(3,8-dimethyl-[1,2,4]triazolo[4,3-a]pyridin-6-yl)-3-methyl-6-oxo-5,6-dihydropyrrolo[3,4-c]pyrazol-1(4H)-yl)azetidine-1-carboxylate] | < 4.43 | 7.31 | 7.36 |
| CC(=O)N1CC(n2nc(C)c3c2C(=O)N(c2cc(C)c4nnc(C)n4c2)C3c2ccc(Cl)cc2)C1 (stereo not drawn) [Example 154, 1-(1-acetylazetidin-3-yl)-4-(4-chlorophenyl)-5-(3,8-dimethyl-[1,2,4]triazolo[4,3-a]pyridin-6-yl)-3-methyl-4,5-dihydropyrrolo[3,4-c]pyrazol-6(1H)-one] | < 4.43 | 7.04 | 6.68 |
| CCc1nn(CCOC)c2c1C(c1ccc(Cl)cc1)N(c1cc(C)c3nnc(C)n3c1)C2=O (stereo not drawn) [Example 87, 4-(4-chlorophenyl)-5-(3,8-dimethyl-[1,2,4]triazolo[4,3-a]pyridin-6-yl)-3-ethyl-1-(2-methoxyethyl)-4,5-dihydropyrrolo[3,4-c]pyrazol-6(1H)-one] | 5.01 | 7.30 | 7.76 |
| CCc1nn(CCO)c2c1C(c1ccc(Cl)cc1)N(c1cc(C)c(=O)n(C)c1)C2=O (stereo not drawn) [Example 78, 4-(4-chlorophenyl)-5-(1,5-dimethyl-6-oxo-1,6-dihydropyridin-3-yl)-3-ethyl-1-(2-hydroxyethyl)-4,5-dihydropyrrolo[3,4-c]pyrazol-6(1H)-one] | 5.51 | 7.20 | 7.40 |
